Read-outs that look alike come from different tables or passages of the source.
How the values were obtained:
[1] = tested on: L1210 DDPt (cis-plat) cells; test: sensitivity of mdr lines, L1210 DDPt; format: cell-based; conditions: Mus musculus
[2] = tested on: human lung adenocarcinoma MV522; test: animal or person; conditions: MV522, ip, read-out: life span
[3] = tested on: 8402, T-cell; test: inhibition of thymidine incorporation after two hour exposure, 8402; format: cell-based; conditions: 2 h, Table 1, 8402, two hour exposure
Experimental: (§1) To assess cytotoxic effects, various concentrations of illudins were added to cultures of cells for 48 hours, then cell growth/viability was determined by trypan blue exclusion. As an alternative to 48 hour continuous exposure studies, cells were plated in liquid culture in 96 well plates, exposed to various concentrations of illudins for 2 hours, pulsed with [^3 H]-thymidine for one to two hours and harvested onto glass filters. The filter papers were added to vials containing scintillation fluid and residual radioactivity determined in a beta (scintillation) counter.
(§2) two hour exposure to the toxins (N - 3).

[4] = tested on: Molt-4 (human T-cell leukemia) xenograft; test: Molt-4 xenograft in athymic Balb/c nu/nu mice; format: in vivo; conditions: Molt-4, athymic mice; FIG. 4
[5] = tested on: KB parent cells; test: sensitivity of mdr lines, KB parent; format: cell-based
[6] = tested on: CEM parent cells; test: sensitivity of mdr lines, CEM parent; format: cell-based
[7] = tested on: MCF-7, breast; test: cells; format: cell-based, human
[8] = tested on: MV522; test: cells; format: cell-based; conditions: Homo sapiens, MV522, 48 h, read-out: 48 hour IC50
[9] = tested on: human lung adenocarcinoma MV522; conditions: in vivo
[10] = tested on: Colon 38; test: zone of inhibition, Colon 38
[11] = tested on: HL-60 ADR (gp150+) cells; test: sensitivity of mdr lines, HL-60 ADR; format: cell-based; conditions: Homo sapiens, HL60/ADR
[12] = tested on: 242, melanoma; test: inhibition of thymidine incorporation after two hour exposure, 242; format: cell-based; conditions: 2 h; Table 1; 242, two hour exposure
Experimental: as §1, §2

[13] = tested on: CEM Dox (gp170+) variant cells; test: sensitivity of mdr lines, CEM Dox; format: cell-based
[14] = tested on: CEM VM-1 variant cells; test: sensitivity of mdr lines, CEM VM-1; format: cell-based; conditions: Homo sapiens, CEM-VM1
[15] = tested on: L1210 CPA (cyclophos) cells; test: sensitivity of mdr lines, L1210 CPA; format: cell-based; conditions: Mus musculus
[16] = tested on: KB C-1 (gp170+) cells; test: sensitivity of mdr lines, KB C-1; format: cell-based; conditions: KBC-1
[17] = tested on: CFU-GM; test: colony formation zone size, CFU-GM; conditions: CFU-GM
[18] = tested on: CEM VLB100 (gp170+) variant cells; test: sensitivity of mdr lines, CEM VLB100; format: cell-based
[19] = tested on: L1210; test: zone of inhibition / colony formation, L1210
[20] = tested on: 8392 cells (B-cell); test: cells; format: cell-based; conditions: 2 h
[21] = tested on: HL60 cells (myeloid); test: cells; format: cell-based, human; conditions: Homo sapiens, HL-60, 2 h
[22] = tested on: L1210 parent cells; test: sensitivity of mdr lines, L1210 parent; format: cell-based; conditions: Mus musculus
[23] = tested on: CEM AraC variant cells; test: sensitivity of mdr lines, CEM AraC; format: cell-based
[24] = tested on: MDA-231, breast; test: cells; format: cell-based
[25] = tested on: 547, ovarian; test: inhibition of thymidine incorporation after two hour exposure, 547; format: cell-based; conditions: 2 h; Table 1; 547, two hour exposure
Experimental: as §1, §2

[26] = tested on: Go; test: zone of inhibition, Go
[27] = tested on: HL-60 parent cells; test: sensitivity of mdr lines, HL-60 parent; format: cell-based; conditions: Homo sapiens
[28] = tested on: HL60 cells; test: cells; format: cell-based; conditions: Homo sapiens, HL-60, 48 h, read-out: 48 hour IC50
[29] = tested on: MCF7-wt parent (Breast) cells; test: sensitivity of mdr lines, MCF7-wt parent; format: cell-based; conditions: Homo sapiens
[30] = tested on: MDA-231 3-1 (gp170+) cells; test: sensitivity of mdr lines, MDA-231 3-1; format: cell-based; conditions: Homo sapiens, MDA-MB-231
[31] = tested on: L1210 PAM (melphalan) cells; test: sensitivity of mdr lines, L1210 PAM; format: cell-based; conditions: Mus musculus
[32] = tested on: KB VBL (gp170+) cells; test: sensitivity of mdr lines, KB VBL; format: cell-based
[33] = tested on: L1210 BCNU cells; test: sensitivity of mdr lines, L1210 BCNU; format: cell-based; conditions: Mus musculus
[34] = tested on: MV522 cells; test: cells; format: cell-based, human; conditions: Homo sapiens, MV522, 2 h, read-out: Two hour IC50
[35] = tested on: SL-2, murine (thymic); test: inhibition of thymidine incorporation after two hour exposure, SL-2; format: cell-based; conditions: Mus musculus, 2 h; Table 1; SL-2, two hour exposure
Experimental: as §1, §2

[36] = tested on: HL-60 cells; test: cells; format: cell-based, human; conditions: Homo sapiens, HL-60
[37] = tested on: C1498 cells; test: C1498 syngeneic mouse AML model, increased life span; format: in vivo
Experimental: In collaboration, the in vivo effects of dehydroilludin M was again studied. Initially the compound was studied against L1210 cells. […] The dehydroilludin M was then administered as a 24 hour infusion (5.0 mg/kg); the ILS was 11%. After we became aware of the presence of the energy-dependent uptake in human myelocytic cells, dehydroilludin M was screened for in vivo […], produced an ILS of 35%.

[38] = tested on: 8392 cells; test: cells; format: cell-based; conditions: 48 h, read-out: 48 hour IC50
[39] = tested on: MCF7 ADR (GSH-transferase) cells; test: cells; format: cell-based; conditions: Homo sapiens
[40] = tested on: MDA-231 parent (Breast) cells; test: sensitivity of mdr lines, MDA-231 parent; format: cell-based; conditions: Homo sapiens, MDA-MB-231

With `CC1=C2C(=C[C@@](C)(CO)C2O)C(=O)[C@](C)(O)C12CC2` (stereo partly shown) [Illudin S] the IC50 [1] was 0.46 ± 0.12 nM, the response vs control in vivo at 0.25 mg/kg [2] was 104 ± 20% and the response vs control in vivo at 2.5 mg/kg [2] was under 26%. For the same molecule, the IC50 [3] was 669 ± 196 nM, the tumor growth [4] was “tumor growth delay” and the IC50 [5] was 0.58 ± 0.12 nM. For the same molecule, the IC50 [6] was 8.3 ± 2.6 nM, the “sensitivity to illudin S” value [7] was “markedly sensitive” and the IC50 ([7]; Homo sapiens, MCF7, 2 h) was 58 ± 5 nM. For the same molecule, the IC50 [8] was 4 ± 1 nM, the “life span versus control” value [9] was “no significant increase in the life span” and the “Zone of Inhibition” value ([10]; Colon 38, 0.63 ug/disc) was 0. For the same molecule, the “Zone of Inhibition” value ([10]; Colon 38, 1.25 ug/disc) was 0, the “Zone of Inhibition” value ([10]; Colon 38, 2.50 ug/disc) was 30 and the IC50 [11] was 1.9 ± 0.8 nM. For the same molecule, the IC50 [12] was 607 ± 70 nM, the IC50 [13] was 14 nM and the IC50 [14] was 16.2 ± 6.4 nM. The IC50 [15] was 0.46 ± 0.12 nM, the IC50 [16] was 0.69 ± 0.15 nM and the “Zone Size” value ([17]; dilution 1/1,000) was 400. For the same molecule, the “Zone Size” value ([17]; dilution 1/4,000) was 200, the “Zone Size” value ([17]; dilution 1/16,000) was 0 and the “Zone Size” value ([17]; dilution 1/64,000) was 0. The IC50 [18] was 3.7 ± 0.7 nM, the “Zone of Inhibition” value ([19]; L1210, 0.63 ug/disc) was 320 and the “Zone of Inhibition” value ([19]; L1210, 1.25 ug/disc) was 400. For the same molecule, the “Zone of Inhibition” value ([19]; L1210, 2.50 ug/disc) was 500, the “Zone Size” value ([19]; L1210, dilution 1/1,000) was 850 and the “Zone Size” value ([19]; L1210, dilution 1/4,000) was 600. The “Zone Size” value ([19]; L1210, dilution 1/16,000) was 550, the “Zone Size” value ([19]; L1210, dilution 1/64,000) was 300 and the IC50 [20] was 236 ± 31 nM. The IC50 ([20]; read-out: Two hour IC50) was 236 ± 2 nM, the IC50 [21] was 7 ± 1 nM and the IC50 ([21]; read-out: Two hour IC50) was 10 ± 1 nM. For the same molecule, the IC50 [22] was 0.42 ± 0.08 nM, the IC50 [23] was 14 nM and the “sensitivity to illudin S” value [24] was “markedly sensitive”. The IC50 ([24]; Homo sapiens, MDA-MB-231, 2 h) was 2 ± 0.2 nM, the IC50 [25] was 607 ± 110 nM and the “Zone of Inhibition” value ([26]; 0.63 ug/disc) was 3. For the same molecule, the “Zone of Inhibition” value ([26]; 1.25 ug/disc) was 70, the “Zone of Inhibition” value ([26]; 2.50 ug/disc) was 240 and the IC50 [27] was 3.1 ± 1.1 nM. For the same molecule, the IC50 [28] was 10 ± 1 nM, the IC50 ([29]; MCF7-wt Parent, read-out: Sensitivity of mdr lines) was 0.88 ± 0.11 nM and the IC50 ([29]; MCF7-wt, read-out: parent IC50) was 0.88 nM. For the same molecule, the IC50 [30] was 0.89 ± 0.38 nM, the IC50 [31] was 0.62 ± 0.15 nM and the IC50 [32] was 0.69 ± 0.11 nM. The IC50 [33] was 0.58 ± 0.08 nM, the IC50 [34] was 19 ± 6 nM and the IC50 [35] was 142 ± 15 nM. It also gave an IC50 [36] of 10 nM, an ILS ([37]; 2.5 mg/kg IP once a day for 5 days) of 44% and an ILS ([37]; single bolus, 2.5 mg/kg IP) of 35%. For the same molecule, the IC50 [38] was 8 ± 2 nM, the IC50 ([39]; NCI/ADR-RES, read-out: Sensitivity of mdr lines) was 3.7 ± 0.4 nM and the IC50 ([39]; read-out: daughter line IC50) was 3.7 nM. For the same molecule, the IC50 [40] was 0.85 ± 0.23 nM.
